Test results as given in EP0852233A1, “CYCLOSPORIN PHOSPHATE DERIVATIVES AND MEDICINAL COMPOSITION” (NIPPON SHINYAKU COMPANY, LIMITED, priority 1995, dated 1997).
Converted amounts (≈) assume the structure as drawn.

Tests used:
[1] = tested on: IL-2 production of T cells (Jurkat cells); assay: IL-2 production inhibitory activity (Jurkat cells stimulated with concanavalin A; IL-2 determined by CTLL-2 bioassay/MTT); format: cell-based, human; conditions: 24 hours
Method: It is known that the immunosuppressant action of cyclosporins is based on inhibition of the IL-2 gene of T cells. Therefore, the biological activity of cyclosporins can be assayed using inhibition of the IL-2 production of T cells as an indicator. Accordingly, using Jurkat cells (a tumor cell line derived from human T cells), the biological activity of the compound of the invention was evaluated.
Jurkat cells grown to the logarithmic phase in RPMI-1640 medium (Flow Laboratories; 10% heat-inactivated FBS, 300 mg/l L-glutamine, 50 U/ml streptomycin, 50 U/ml penicillin, 25 mM Hepes, 50 µM 2-mercaptoethanol) were seeded onto a 96-well microtiter plate at a density of 8x10^5 cells/ml, 0.1 ml/well. Then, as an IL-2 production inducer, 10 µl of concanavalin A was added, followed by addition of 20 µl each of samples varying in concentration. After the final volume was adjusted to 0.2 ml/well with the medium, the plate was incubated in a CO2 incubator at 37°C for 24 hours. After completion of culture, the reaction mixture in each well was centrifuged (1000 rpm x 5 min.) and the supernatant was recovered.
Determination of IL-2 was carried out by the bioassay using CTLL-2 cells which are known as IL-2-dependent cells.
To 0.1 ml of CTLL-2 cells (40,000/ml) in logarithmic phase, 0.1 ml of an appropriate dilution of the above supernatant was added, and the cells were cultured in a CO2 incubator at 37°C for 48 hours. After completion of culture, the cell growth was determined by the MTT assay. The relation between growth of CTLL-2 cells and IL-2 concentration was previously plotted for a recombinant IL-2 and using the plots as a standard curve, the IL-2 concentration was estimated from the degree of growth of CTLL-2 cells.
The IL-2 production inhibition rate was calculated by means of the following equation (1) and the IC50 value of each sample was calculated from the inhibition rates at various concentrations. IL-2 production inhibition rate (%) = (1-(IL-2 production by cells in presence of sample)/(IL-2 production by cells in absence of sample)) x100 [formula]

[2] = physchem; conditions: water
Method: From each test tube, 250 µl was taken into a centrifuge tube and centrifuged (10,000 rpm x 10 min.). The supernatant was recovered, diluted with distilled water, and subjected to HPLC for assay.
Column: Inertsil C8 (4.6x250 mm) Mobile phase: acetonitrile-methanol-distilled water-phosphoric acid (50:35:15:0.005) Column temperature: 75°C Detection: UV 210 nm

[3] = rat, in vivo
Method: Nephrotoxicity was investigated by the lithium clearance method.
Each sample was adjusted to a concentration of 5 mg/ml and 2 ml/kg was administered intraperitonally for 7 consecutive days. The control group similarly received the solvent used for preparation of the sample solutions. […] On the following day the blood was drawn from the jugular vein and the animals were placed in metabolism cages. Under feeding with the lithium diet, the 24-hour urine was collected and the urine volume was measured using a measuring cylinder. After the rats were taken out from the metabolism cages, blood sampling was immediately carried out and the mean lithium value of two measurements before and after urine collection was taken as the blood lithium value of the corresponding rat. The body weight of rats was determined immediately after they were taken out from metabolism cages. To determine the blood lithium concentration, each blood sample was centrifuged at 3000 rpm for 10 minutes and the plasma was taken for determination. […] 24-hr CLi /100 g = urine volume x 100/rat body weight · urinary Li value/blood Li value [formula]

[4] = Absorption after oral administration and release of the phosphate group (blood concentration by HPLC); format: in vivo; conditions: SD rats, oral 30 mg/kg; for level at 0.5 h / level at 1 h / level at 2 h / level at 4 h / level at 8 h / level at 24 h: rat, blood, read-out: Blood concentration of the administered compound (unchanged)
Method: Each blood sample was centrifuged (10,000 rpm x 5 min.) and the supernatant was applied onto a pretreatment column (Sep-Pack C18 Vac, Waters). After the column was rinsed with distilled water and 40% methanol, elution was carried out in 10% steps from 50% methanol to 100% methanol and 50 µl of the eluate was injected into an HPLC. From the concentration value thus found, the blood concentration was calculated.

IL-2 production inhibitory concentration (IC50 ng/ml) [1] [ng/mL] | solubility thermodynamic at 30 min [2] [µg/mL] | Sum of blood concentrations up to 24 hr, administered compound (unchanged) [4] [ng/mL] | level at 0.5 h ([4]; 0.5 hr after administration) [ng/mL] | level at 1 h ([4]; 1 hr after administration) [ng/mL] | level at 2 h ([4]; 2 hr after administration) [ng/mL] | level at 4 h ([4]; 4 hr after administration) [ng/mL] | level at 8 h ([4]; 8 hr after administration) [ng/mL] | level at 24 h ([4]; 24 hr after administration) [ng/mL] | SMILES | also measured
12 | 29.7 (≈ 24.4 µM) |  |  |  |  |  |  |  | C/C=C/C[C@@H](C)[C@@H](O)[C@H]1C(=O)N[C@@H]([C@@H](C)O)C(=O)N(C)CC(=O)N(C)[C@@H](CC(C)C)C(=O)N[C@@H](C(C)C)C(=O)N(C)[C@@H](CC(C)C)C(=O)N[C@@H](C)C(=O)N[C@H](C)C(=O)N(C)[C@@H](CC(C)C)C(=O)N(C)[C@@H](CC(C)C)C(=O)N(C)[C@@H](C(C)C)C(=O)N1C [Cyclosporin C] | nephrotoxicity [3]: nephrotoxic
6 | 35.1 (≈ 28.8 µM) | 8754 | 895 | 4320 | 1920 | 1020 | 533 | 69 | C/C=C/C[C@@H](C)[C@@H](O)[C@H]1C(=O)N[C@@H](CC)C(=O)N(C)CC(=O)N(C)[C@@H](CC(C)C)C(=O)N[C@@H](C(C)C)C(=O)N(C)[C@@H](CC(C)C)C(=O)N[C@@H](C)C(=O)N[C@H](CO)C(=O)N(C)[C@@H](CC(C)C)C(=O)N(C)[C@@H](CC(C)C)C(=O)N(C)[C@@H](C(C)C)C(=O)N1C [[D-serine^8]cyclosporin A, reference compound] | 
 |  | 3053 | 391 | 813 | 971 | 536 | 311 | 31 | C/C=C/C[C@@H](C)[C@@H](O)[C@H]1C(=O)N[C@@H](CC)C(=O)N(C)CC(=O)N(C)[C@@H](CC(C)C)C(=O)N[C@@H](C(C)C)C(=O)N(C)[C@@H](CC(C)C)C(=O)N[C@@H](C)C(=O)N[C@H](COP(=O)(O)O)C(=O)N(C)[C@@H](CC(C)C)C(=O)N(C)[C@@H](CC(C)C)C(=O)N(C)[C@@H](C(C)C)C(=O)N1C [[Phosphono-D-serine^8]cyclosporin A, [phosphono-D-serine^8]cyclosporin A] | Sum of blood concentrations up to 24 hr, Sum of (2) and (3) [4]: 13501 ng/mL; Sum of blood concentrations up to 24 hr, [D-serine^8]cyclosporin A which released phosphoric acid [4]: 10448 ng/mL; Blood concentration of [D-serine^8]cyclosporin A which released phosphoric acid ([4]; 0.5 hr after administration): 1413 ng/mL; Blood concentration, Sum of (2) and (3) (released plus unchanged compound) ([4]; 0.5 hr after administration): 1804 ng/mL; Blood concentration of [D-serine^8]cyclosporin A which released phosphoric acid ([4]; 1 hr after administration): 3115 ng/mL; Blood concentration, Sum of (2) and (3) (released plus unchanged compound) ([4]; 1 hr after administration): 3928 ng/mL; Blood concentration of [D-serine^8]cyclosporin A which released phosphoric acid ([4]; 2 hr after administration): 2516 ng/mL; Blood concentration, Sum of (2) and (3) (released plus unchanged compound) ([4]; 2 hr after administration): 3437 ng/mL; Blood concentration of [D-serine^8]cyclosporin A which released phosphoric acid ([4]; 4 hr after administration): 2391 ng/mL; Blood concentration, Sum of (2) and (3) (released plus unchanged compound) ([4]; 4 hr after administration): 2927 ng/mL; Blood concentration of [D-serine^8]cyclosporin A which released phosphoric acid ([4]; 8 hr after administration): 910 ng/mL; Blood concentration, Sum of (2) and (3) (released plus unchanged compound) ([4]; 8 hr after administration): 1221 ng/mL; Blood concentration of [D-serine^8]cyclosporin A which released phosphoric acid ([4]; 24 hr after administration): 103 ng/mL; Blood concentration, Sum of (2) and (3) (released plus unchanged compound) ([4]; 24 hr after administration): 134 ng/mL
49 |  |  |  |  |  |  |  |  | C/C=C/C[C@@H](C)[C@@H](O)[C@H]1C(=O)N[C@@H]([C@@H](C)OP(=O)(O)O)C(=O)N(C)CC(=O)N(C)[C@@H](CC(C)C)C(=O)N[C@@H](C(C)C)C(=O)N(C)[C@@H](CC(C)C)C(=O)N[C@@H](C)C(=O)N[C@H](C)C(=O)N(C)[C@@H](CC(C)C)C(=O)N(C)[C@@H](CC(C)C)C(=O)N(C)[C@@H](C(C)C)C(=O)N1C [[Phosphonothreonine^2]cyclosporin A, [phosphonothreonine^2]cyclosporin A] | 
